From patent EP4722208A1, “NOVEL BENZAMIDE DERIVATIVE COMPOUND AND PHARMACEUTICAL COMPOSITION COMPRISING SAME” (Samjin Pharmaceutical Co., Ltd., priority 2023, dated 2024)

Legend:
[1] = system: HCT116 colorectal cancer cell lines; assay: Tumor cytotoxicity assay (MTT); type: cell-based; conditions: Homo sapiens, HCT-116, HCT116 cells, 72 hours treatment, 0.1 nM to 1000 nM
Procedure: The anticancer efficacy of the compound of the present invention was evaluated using the MTT analysis method in HCT116 colorectal cancer cell lines. The cells were incubated using DMEM medium containing 10% FBS. The cells were distributed in a 96-well plate at a density of 2,500 cells per well, the HCT116 cells were incubated for 24 hours, and then treated with a drug using a serum free DMEM. First, a compound was prepared in 100% dimethyl sulfoxide (DMSO) at a concentration of 0.02 µM to 200 µM, diluted in the culture medium so that the final concentration of DMSO might reach 0.5%, and treated with the drug so that the final concentration of the compound might range from 0.1 nM to 1000 nM. After that, they were further incubated for 72 hours at 37°C and CO2 5% and treated with MTT (Sigma-Aldrich, M2128) to confirm cytotoxicity. Formazan produced from reduction by enzymes in the mitochondria of living cells was measured using Spark® Multimode Microplate Reader TECAN equipment. A cell viability (%) was relatively determined by subtracting a reference 650 nm optical density (O.D.) from 570 nm O.D., in which the 0.5% DMSO-treated control was set as a standard of 100%. […]

[2] = biological target: T1, Recombinant NAMPT protein (Homo sapiens, UniProt P43490); assay: NAMPT enzyme inhibition assay (BPS bioscience NAMPT Inhibitor Screening Assay Kit, fluorescence); type: biochemical; conditions: 30 min pre-incubation, 2 h at 30°C, compound 1000 nM to 3 nM, n=2
T1 construct: purchased BPS bioscience # 7176-1
T1 sequence (P43490 whole entry): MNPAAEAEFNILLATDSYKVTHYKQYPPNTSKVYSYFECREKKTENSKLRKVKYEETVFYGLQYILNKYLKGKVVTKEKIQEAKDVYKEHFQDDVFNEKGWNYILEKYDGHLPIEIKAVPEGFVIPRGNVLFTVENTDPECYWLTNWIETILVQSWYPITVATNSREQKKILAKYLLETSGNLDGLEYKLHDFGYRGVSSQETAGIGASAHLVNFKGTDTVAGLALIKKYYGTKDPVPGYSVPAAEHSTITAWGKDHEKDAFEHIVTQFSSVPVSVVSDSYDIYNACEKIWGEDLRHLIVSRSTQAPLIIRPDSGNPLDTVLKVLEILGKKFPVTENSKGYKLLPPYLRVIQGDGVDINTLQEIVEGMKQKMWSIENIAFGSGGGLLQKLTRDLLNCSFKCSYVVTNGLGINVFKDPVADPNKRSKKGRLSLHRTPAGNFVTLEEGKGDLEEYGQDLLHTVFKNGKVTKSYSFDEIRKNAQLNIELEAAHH
Procedure: The NAMPT enzyme activity inhibition ability of the compound of the present invention was evaluated using the NAMPT Inhibitor Screening Assay Kit (# 7176-1) from BPS bioscience. Recombinant NAMPT protein was added to each well of a black 96-well plate, and dilution buffer was added to a blank well instead of NAMPT protein. A 5 x concentrated compound solution was added and pre-incubated at room temperature (approximately 22°C) for 30 minutes before the start of the reaction so that the compound and protein might bind before the enzyme reaction. At this time, the concentration of NAMPT protein was adjusted and used according to the enzyme activity of each protein lot within the final concentration range of 4-10 ng/µl, and the test compound was serially diluted at a ratio of 1:3 from 1000 nM to 3 nM, and experiments were conducted with n=2 for about seven concentrations. A 2 x concentrated test buffer containing ATP (final concentration of 20 µM), nicotinamide (final concentration of 20 µM), phosphoribosyl pyrophosphate (PRPP, final concentration of 40 µM), and ethanol (final concentration of 1.5%) was added, and the plate was incubated at 30°C for two hours, after which the fluorescence of a resulting reaction product was measured with excitation of 340 nm and emission of 460 nm. The NAMPT enzyme activity (%) was calculated by subtracting the measurement value of the blank well without NAMPT protein from the measurement value of all wells, and then taking the measurement value of the control well without the compound as 100%.

[3] = system: HCT-116 cell lines; assay: Cellular NAD measurement assay (NAD/NADH-Glo Assay); type: cell-based; conditions: Homo sapiens; intracellular NAD+/NADH levels, HCT-116 cells, 24 hours treatment, 0.1 nM to 100 nM
Procedure: With regard to HCT-116 cell lines, the decrease in intracellular NAD+ and NADH levels due to the inhibition of NAMPT enzyme activity by compounds was evaluated using the product of NAD/NADH-Glo™ Assay (Promega, G9072) from Promega. The cells were incubated using DMEM (Gibco, 11995-065) medium containing 10% FBS. The HCT-116 cells were incubated for 24 hours after being distributed at a density of 2,500 cells per well in a 96-well plate, and were treated with a drug using a serum-free DMEM. First, a compound was dissolved in 100% dimethyl sulfoxide (DMSO), and then diluted in the culture medium so that the final concentration of DMSO might reach 0.5%, and treated with the drug. The final concentration range of the compounds was 0.1 nM to 100 nM. After that, they were further incubated for 24 hours at 37°C and CO2 5%. To conduct the NAD/NADH-Glo™ Assay, the culture medium of drug-treated cells was removed, and 50 µL of DPBS was treated per well, and left at room temperature for five minutes. The required amount of NAD/NADH-Glo™ Detection Reagent (Reconstituted Luciferin Detection Reagent 1 mL, Reductase 5 µL, Reductase Substrate 5 µL, NAD Cycling Enzyme 5 µL, NAD Cycling Substrate 25 µL) was prepared according to the manufacturer's manual and treated in an amount of 50 µL per well. After incubating for two minutes at 400 rpm in a plate shaker for cell lysis, the cells were incubated for 30 minutes at room temperature, and luminescence was measured. NAD+/NADH levels were calculated by subtracting the measurement value of the blank well without cells from the measurement value of all wells and taking the 0.5% DMSO-treated control as 100%.

Compound | CC50 [1] | IC50 [2] | IC50 [3]
Cn1ccc(CS(=O)(=O)c2ccc(C(=O)NCCCc3cn[nH]c3)cc2C#Cc2ccc(F)cc2)n1 [compound 1, N-(3-(1H-pyrazol-4-yl)propyl)-3-((4-fluorophenyl)ethynyl)-4-(((1-methyl-1H-pyrazol-3-yl)methyl)sulfonyl)benzamide] | ≤ 0.03 µM | < 0.5 µM | ≤ 0.01 µM
Cn1ccc(CS(=O)(=O)c2ccc(C(=O)NCc3ccn4ccnc4c3)cc2C#Cc2ccc(F)cc2)n1 [compound 2, 3-((4-fluorophenyl)ethynyl)-N-(imidazo[1,2-a]pyridin-7-ylmethyl)-4-(((1-methyl-1H-pyrazol-3-yl)methyl)sulfonyl)benzamide] | ≤ 0.03 µM | < 0.5 µM | ≤ 0.01 µM
O=C(NCCCc1cn[nH]c1)c1ccc(S(=O)(=O)Cc2ccn(-c3ccncc3)n2)c(C#Cc2ccc(F)cc2)c1 [compound 10, N-(3-(1H-pyrazol-4-yl)propyl)-3-((4-fluorophenyl)ethynyl)-4-(((1-(pyridin-4-yl)-1H-pyrazol-3-yl)methyl)sulfonyl)benzamide] | ≤ 0.03 µM | < 0.5 µM | ≤ 0.01 µM
Nc1ccc(CS(=O)(=O)c2ccc(C(=O)NCc3ccn4ccnc4c3)cc2C#Cc2ccc(F)cc2)cc1 [compound 148, 4-((4-aminobenzyl)sulfonyl)-3-((4-fluorophenyl)ethynyl)-N-(imidazo[1,2-a]pyridin-7-ylmethyl)benzamide] | 0.1 to 1 µM | < 0.5 µM | –
Cn1ccc(CS(=O)(=O)c2ccc(C(=O)NCc3ccn4ccnc4c3)cc2C#Cc2ccc(N)cc2)n1 [compound 228, 3-((4-aminophenyl)ethynyl)-N-(imidazo[1,2-a]pyridin-7-ylmethyl)-4-(((1-methyl-1H-pyrazol-3-yl)methyl)sulfonyl)benzamide] | ≤ 0.03 µM | < 0.5 µM | ≤ 0.01 µM
Cn1ccc(CS(=O)(=O)c2ccc(C(=O)NCc3ccn4ccnc4c3)cc2C#Cc2cccc(N)c2)n1 [compound 229, 3-((3-aminophenyl)ethynyl)-N-(imidazo[1,2-a]pyridin-7-ylmethyl)-4-(((1-methyl-1H-pyrazol-3-yl)methyl)sulfonyl)benzamide] | ≤ 0.03 µM | < 0.5 µM | ≤ 0.01 µM
Cn1ccc(CS(=O)(=O)c2ccc(C(=O)NCc3ccn4ccnc4c3)cc2C#Cc2cccc(C(=O)N3CCNCC3)c2)n1 [compound 230, N-(imidazo[1,2-a]pyridin-7-ylmethyl)-4-(((1-methyl-1H-pyrazol-3-yl)methyl)sulfonyl)-3-((3-(piperazine-1-carbonyl)phenyl)ethynyl)benzamide] | 0.1 to 1 µM | < 0.5 µM | 0.01 to 1 µM
Cn1ccc(CS(=O)(=O)c2ccc(C(=O)NCc3ccn4ccnc4c3)cc2C#Cc2cccc(CN)c2)n1 [compound 232, 3-((3-(aminomethyl)phenyl)ethynyl)-N-(imidazo[1,2-a]pyridin-7-ylmethyl)-4-(((1-methyl-1H-pyrazol-3-yl)methyl)sulfonyl)benzamide] | ≤ 0.03 µM | < 0.5 µM | –
O=C(NCc1ccn2ccnc2c1)c1ccc(S(=O)(=O)Cc2cc[nH]n2)c(C#Cc2ccc(F)cc2)c1 [compound 234, 4-(((1H-pyrazol-3-yl)methyl)sulfonyl)-3-((4-fluorophenyl)ethynyl)-N-(imidazo[1,2-a]pyridin-7-ylmethyl)benzamide] | ≤ 0.03 µM | < 0.5 µM | –
Cn1ccc(CS(=O)(=O)c2ccc(C(=O)NCc3cnc4nccn4c3)cc2C#Cc2ccc(F)cc2)n1 [compound 238, 3-((4-fluorophenyl)ethynyl)-N-(imidazo[1,2-a]pyrimidin-6-ylmethyl)-4-(((1-methyl-1H-pyrazol-3-yl)methyl)sulfonyl)benzamide] | 0.1 to 1 µM | < 0.5 µM | –
Cn1ccc(CS(=O)(=O)c2ccc(C(=O)NCc3ccn4ccnc4c3)cc2C#Cc2ccc(N)c(F)c2)n1 [compound 241, 3-((4-amino-3-fluorophenyl)ethynyl)-N-(imidazo[1,2-a]pyridin-7-ylmethyl)-4-(((1-methyl-1H-pyrazol-3-yl)methyl)sulfonyl)benzamide] | ≤ 0.03 µM | < 0.5 µM | –
